According to patent US20250295648A1 (priority 2024, published 2025):

What was measured:
[1] = system: PD patients with LID; experiment: PD Home Dyskinesia eDiary (good ON time); type: in vivo, human
Description: A PD Home Dyskinesia Diary (electronic) would be completed by the patients and/or caregiver with concordance in ON time with dyskinesia between study staff and patient. The diary is integrated in the Kinesia 360 wearable dyskinesia assessment system and is based on the PD Home Diary developed by Hauser (Hauser […]. Parkinson's Disease Home Diary: Further Validation and Implications for Clinical Trials. Mov. Discord. 19 (12), 2004). The diary would be used to score 5 different conditions in 30-minute time intervals during 2×24 hours prior to Visit 2, Visit 6 and Visit 7: • ASLEEP; • OFF; • ON (i.e., adequate control of PD symptoms) without dyskinesia; • ON with non-troublesome dyskinesia; • ON with troublesome dyskinesia.

[2] = system: L-DOPA-induced dyskinesia in Parkinson's disease patients; experiment: Unified Dyskinesia Rating Scale (UDysRS) after 150% L-DOPA challenge; conditions: for UDysRS Part 3+4 score, change from baseline: PPS; for UDysRS Parts 3 and 4 most severe, collected value, mean / UDysRS Parts 3 and 4 most severe, collected value, median / UDysRS Parts 3 and 4 most severe, absolute change from baseline, mean / UDysRS Parts 3 and 4 most severe, absolute change from baseline, median / UDysRS Parts 3 and 4 most severe, relative change from baseline (%), mean / UDysRS Parts 3 and 4 most severe, relative change from baseline (%), median: most severe session
Description: Patients were rated for dyskinesia at baseline and on days 28 (at end of up-titration period) and 42 (end of stable dosing period). Because the level of dyskinesia experienced by patients can vary over time, they were given 150% (i.e., 1.5×) of their regular L-DOPA dose (up to a maximum of 250 mg) as a challenge 30 min before each dyskinesia assessment to improve comparability between patients and between visits. Patients were filmed 30, 60 and 90 min after dosing with L-DOPA (˜5 min of filming each time). LID was assessed using the Unified Dyskinesia Rating Scale (UDysRS). Changes from baseline are shown for total score (i.e., Parts 1 to 4), for total objective score (i.e., Parts 3+4), and for the sum of Part 3 objective impairment assessment scores. Because objective LID assessment was carried out at 3 time-points (30, 60 and 90 min) following L-DOPA challenge, the above parameters were analyzed based on the most severe of the three scores as well as on the average score of the 3 time points.
The patient took 150% of their normal L-DOPA dose 30 minutes prior to the start of efficacy assessments (UDysRS) at Day 1 (Visit 2), Day 28 (Visit 6) and Day 42 (Visit 7).
The UDysRS is a rating instrument designed to assess the core features of dyskinesia in Parkinson's Disease. The UDysRS consists of 4 parts: • r. Part I, historical disability with regard to the patient's perceptions of the impact on activities of ADL of on-dyskinesia. • s. Part II, historical disability with regard to the patient's perceptions of the impact on ADL of off-dystonia. • t. Part III, objective impairment, which assesses severity of dyskinesia, affected body parts, and type of impairment (choreic vs. dystonic). • u. Part IV, objective disability, based on an evaluation of Part III activities.
Each item in the UDysRS is scored from 0 to 4, with a possible maximum total score of 104.
The UDysRS assessment would be performed at baseline (Day 1, Visit 2), Day 28 and Day 42 (Visits 6 and 7) starting approximately 30 minutes after the L-DOPA challenge on these days.
The data for all 3 assessments performed at each visit would be entered in the eCRF and the Investigator will highlight which of the assessments, corresponding to the assessment where the patient had most severe dyskinesia, that would be used in the descriptive summaries of data.
Change from baseline in the UDysRS total score to Visit 6 (Day 28) and Visit 7 (Day 42) respectively would be summarized using descriptive statistics. […] The same analysis would be done for UDysRS total objective score Part III and IV only.
The baseline value of the dependent variable has been included in the model as a continuous covariate.

[3] = 5 patients co-treated with amantadine
[4] = Full analysis set, Visit 2 Baseline
[5] = Full analysis set, Visit 6 Clinic Efficacy Visit
[6] = Full analysis set, Visit 7 Clinic Efficacy Visit
[7] = Full analysis set, average of assessment sessions Part 3 and Part 4, Visit 2 Baseline
[8] = Full analysis set, average of assessment sessions Part 3 and Part 4, Visit 6 Clinic Efficacy Visit
[9] = Full analysis set, average of assessment sessions Part 3 and Part 4, Visit 7 Clinic Efficacy Visit
[10] = Full analysis set, average of assessment sessions, highest item score, Visit 2 Baseline
[11] = Full analysis set, average of assessment sessions, highest item score, Visit 6 Clinic Efficacy Visit
[12] = Full analysis set, average of assessment sessions, highest item score, Visit 7 Clinic Efficacy Visit
[13] = Full analysis set, highest item score, Visit 2 Baseline
[14] = Full analysis set, highest item score, Visit 6 Clinic Efficacy Visit
[15] = Full analysis set, highest item score, Visit 7 Clinic Efficacy Visit
[16] = Visit 2 Baseline, per protocol analysis set, N = 15

Cc1ccc(CNCC2(F)CCN(C(=O)c3ccc(F)c(Cl)c3)CC2)nc1 [NLX-112, (3-chloro-4-fluoro-phenyl)-[4-fluoro-4-{[(5-methyl-pyridin-2-ylmethyl)-amino]-methyl}piperidin-1-yl]methanone]
good ON time, mean absolute change from baseline ([1]; Day 28, n=13, eDiary): +5.7%
good ON time, significance of change from baseline within or between groups ([1]; Day 28 or Day 42): no statistically significant changes
good ON time, mean absolute change from baseline ([1]; Day 42, n=12, eDiary): +5.2%
UDysRS Part 3 + 4, mean change from baseline [2, 3]: −4.4
UDysRS Total, mean change from baseline [2, 3]: −4.0
UDysRS Part 3+4 score, change from baseline ([2]; Day 28, average of 3 assessments (30, 60, 90 min), p=0.0065): −2.49 points
UDysRS total score (Parts 1-4), change from baseline ([2]; Day 28, most severe assessment, PPS n=15, p=0.0281 vs baseline): −4.1 points
UDysRS Part 3+4 score, change from baseline ([2]; Day 28, most severe assessment, not statistically significant): −1.7 points
UDysRS sum of Part 3 items, average of all 3 assessments, vs baseline ([2]; Day 28 and Day 42, within NLX-112 group): significant reduction
UDysRS total score or total objective (Parts 3 and 4) score, change from baseline, NLX-112 vs placebo ([2]; Day 28 or Day 42): no significant differences
UDysRS Part 3+4 score, change from baseline ([2]; Day 42, average of 3 assessments (30, 60, 90 min), p=0.0005): −3.31 points
UDysRS total score (Parts 1-4), change from baseline ([2]; Day 42, most severe assessment, PPS n=15, p=0.0016 vs baseline): −6.3 points
UDysRS Part 3+4 score, change from baseline ([2]; Day 42, most severe assessment, p=0.0038 vs baseline): −3.1 points
UDysRS Parts 1, 2, 3, and 4 most severe, collected value, mean [2, 4]: 31.8
UDysRS Parts 1, 2, 3, and 4 most severe, collected value, median [2, 4]: 31.0
UDysRS Parts 1, 2, 3, and 4 most severe, absolute change from baseline, mean [2, 5]: −4.1
UDysRS Parts 1, 2, 3, and 4 most severe, absolute change from baseline, median [2, 5]: −2.0
UDysRS Parts 1, 2, 3, and 4 most severe, collected value, mean [2, 5]: 27.5
UDysRS Parts 1, 2, 3, and 4 most severe, collected value, median [2, 5]: 28.0
UDysRS Parts 1, 2, 3, and 4 most severe, relative change from baseline (%), mean [2, 5]: −10.2%
UDysRS Parts 1, 2, 3, and 4 most severe, relative change from baseline (%), median [2, 5]: −6.45%
UDysRS Parts 1, 2, 3, and 4 most severe, absolute change from baseline, mean [2, 6]: −6.3
UDysRS Parts 1, 2, 3, and 4 most severe, absolute change from baseline, median [2, 6]: −8.0
UDysRS Parts 1, 2, 3, and 4 most severe, collected value, mean [2, 6]: 25.3
UDysRS Parts 1, 2, 3, and 4 most severe, collected value, median [2, 6]: 24.0
UDysRS Parts 1, 2, 3, and 4 most severe, relative change from baseline (%), mean [2, 6]: −19.0%
UDysRS Parts 1, 2, 3, and 4 most severe, relative change from baseline (%), median [2, 6]: −25.8%
UDysRS Parts 1, 2, 3, and 4 average, collected value, mean [2, 7]: 30.43
UDysRS Parts 1, 2, 3, and 4 average, collected value, median [2, 7]: 29.67
UDysRS Parts 1, 2, 3, and 4 average, absolute change from baseline, mean [2, 8]: −4.82
UDysRS Parts 1, 2, 3, and 4 average, absolute change from baseline, median [2, 8]: −3.00
UDysRS Parts 1, 2, 3, and 4 average, collected value, mean [2, 8]: 25.33
UDysRS Parts 1, 2, 3, and 4 average, collected value, median [2, 8]: 25.33
UDysRS Parts 1, 2, 3, and 4 average, relative change from baseline (%), mean [2, 8]: −9.33%
UDysRS Parts 1, 2, 3, and 4 average, relative change from baseline (%), median [2, 8]: −10.6%
UDysRS Parts 1, 2, 3, and 4 average, absolute change from baseline, mean [2, 9]: −6.51
UDysRS Parts 1, 2, 3, and 4 average, absolute change from baseline, median [2, 9]: −7.67
UDysRS Parts 1, 2, 3, and 4 average, collected value, mean [2, 9]: 23.64
UDysRS Parts 1, 2, 3, and 4 average, collected value, median [2, 9]: 23.00
UDysRS Parts 1, 2, 3, and 4 average, relative change from baseline (%), mean [2, 9]: −19.5%
UDysRS Parts 1, 2, 3, and 4 average, relative change from baseline (%), median [2, 9]: −21.9%
UDysRS Parts 3 and 4 average, collected value, mean [2, 10]: 13.98
UDysRS Parts 3 and 4 average, collected value, median [2, 10]: 13.17
UDysRS Parts 3 and 4 average, absolute change from baseline, mean [2, 11]: −2.49
UDysRS Parts 3 and 4 average, absolute change from baseline, median [2, 11]: −1.67
UDysRS Parts 3 and 4 average, collected value, mean [2, 11]: 11.60
UDysRS Parts 3 and 4 average, collected value, median [2, 11]: 10.33
UDysRS Parts 3 and 4 average, relative change from baseline (%), mean [2, 11]: −17.3%
UDysRS Parts 3 and 4 average, relative change from baseline (%), median [2, 11]: −20.0%
UDysRS Parts 3 and 4 average, absolute change from baseline, mean [2, 12]: −3.31
UDysRS Parts 3 and 4 average, absolute change from baseline, median [2, 12]: −3.33
UDysRS Parts 3 and 4 average, collected value, mean [2, 12]: 10.78
UDysRS Parts 3 and 4 average, collected value, median [2, 12]: 9.67
UDysRS Parts 3 and 4 average, relative change from baseline (%), mean [2, 12]: −25.3%
UDysRS Parts 3 and 4 average, relative change from baseline (%), median [2, 12]: −31.5%
UDysRS Parts 3 and 4 most severe, collected value, mean [2, 13]: 15.3
UDysRS Parts 3 and 4 most severe, collected value, median [2, 13]: 13.5
UDysRS Parts 3 and 4 most severe, absolute change from baseline, mean [2, 14]: −1.7
UDysRS Parts 3 and 4 most severe, absolute change from baseline, median [2, 14]: −1.0
UDysRS Parts 3 and 4 most severe, collected value, mean [2, 14]: 13.8
UDysRS Parts 3 and 4 most severe, collected value, median [2, 14]: 12.0
UDysRS Parts 3 and 4 most severe, relative change from baseline (%), mean [2, 14]: −15.8%
UDysRS Parts 3 and 4 most severe, relative change from baseline (%), median [2, 14]: −8.33%
UDysRS Parts 3 and 4 most severe, absolute change from baseline, mean [2, 15]: −3.1
UDysRS Parts 3 and 4 most severe, absolute change from baseline, median [2, 15]: −4.0
UDysRS Parts 3 and 4 most severe, collected value, mean [2, 15]: 12.4
UDysRS Parts 3 and 4 most severe, collected value, median [2, 15]: 11.0
UDysRS Parts 3 and 4 most severe, relative change from baseline (%), mean [2, 15]: −21.0%
UDysRS Parts 3 and 4 most severe, relative change from baseline (%), median [2, 15]: −31.6%
UDysRS Parts 1, 2, 3, and 4 average, collected value, mean [2, 16]: 30.16
UDysRS Parts 1, 2, 3, and 4 average, collected value, median [2, 16]: 29.33
UDysRS Parts 1, 2, 3, and 4 most severe, collected value, mean [2, 16]: 31.6
UDysRS Parts 1, 2, 3, and 4 most severe, collected value, median [2, 16]: 31.0
UDysRS Parts 3 and 4 average, collected value, mean [2, 16]: 14.09
UDysRS Parts 3 and 4 average, collected value, median [2, 16]: 13.00
